Results taken from ChEMBL document CHEMBL1275601, “Striking species difference in the contribution of concentrative nucleoside transporter 2 to nucleoside uptake between mouse and rat hepatocytes” (Antimicrob Agents Chemother, 2010).
Calls of active or inactive are those of the source. The calls are words filed in the database; no cut-off is given here.

Legend:
Type in all cases: cell-based
[1] = target: T1, Equilibrative nucleoside transporter 2 (Rattus norvegicus) (UniProt O54699); test: Transport through ENT2 in rat hepatocytes by oil filtration assay in presence 100 uM of transporter inhibitor NBMRP; settings: Hepatocyte
T1 sequence (whole entry): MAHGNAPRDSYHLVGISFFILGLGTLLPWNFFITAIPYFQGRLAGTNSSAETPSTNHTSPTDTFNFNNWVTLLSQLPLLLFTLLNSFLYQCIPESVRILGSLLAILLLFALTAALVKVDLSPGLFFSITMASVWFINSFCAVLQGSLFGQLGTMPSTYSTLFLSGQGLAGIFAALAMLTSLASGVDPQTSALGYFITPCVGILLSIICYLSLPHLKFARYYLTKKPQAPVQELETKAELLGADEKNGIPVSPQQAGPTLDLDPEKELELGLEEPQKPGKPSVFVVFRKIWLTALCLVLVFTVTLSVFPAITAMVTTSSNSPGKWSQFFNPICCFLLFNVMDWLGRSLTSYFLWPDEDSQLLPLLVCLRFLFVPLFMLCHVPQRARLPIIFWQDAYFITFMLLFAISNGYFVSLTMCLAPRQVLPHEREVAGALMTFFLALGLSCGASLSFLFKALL

[2] = target: T2, Equilibrative nucleoside transporter 1 (Rattus norvegicus) (UniProt O54698); test: Transport through ENT1 in rat hepatocytes by oil filtration assay in presence 100 uM of transporter inhibitor NBMRP; settings: Hepatocyte
T2 sequence (whole entry): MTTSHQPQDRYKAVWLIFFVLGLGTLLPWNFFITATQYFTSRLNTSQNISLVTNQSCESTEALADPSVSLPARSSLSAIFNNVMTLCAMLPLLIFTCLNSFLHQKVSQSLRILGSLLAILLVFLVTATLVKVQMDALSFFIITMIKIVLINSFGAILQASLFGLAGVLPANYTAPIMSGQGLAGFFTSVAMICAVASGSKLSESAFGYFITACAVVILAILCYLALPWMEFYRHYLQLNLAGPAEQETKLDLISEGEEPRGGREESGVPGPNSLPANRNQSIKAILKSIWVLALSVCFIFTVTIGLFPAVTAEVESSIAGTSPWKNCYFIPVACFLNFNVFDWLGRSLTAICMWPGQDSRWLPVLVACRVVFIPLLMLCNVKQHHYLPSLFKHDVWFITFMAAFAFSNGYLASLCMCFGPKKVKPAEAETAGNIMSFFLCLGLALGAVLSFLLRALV

[3] = target: T3, Equilibrative nucleoside transporter 2 (Mus musculus) (UniProt Q61672); test: Transport through ENT2 in mouse hepatocytes by oil filtration assay in presence of sodium ions in Kreb-henseleit buffer; settings: Hepatocyte
T3 sequence (whole entry): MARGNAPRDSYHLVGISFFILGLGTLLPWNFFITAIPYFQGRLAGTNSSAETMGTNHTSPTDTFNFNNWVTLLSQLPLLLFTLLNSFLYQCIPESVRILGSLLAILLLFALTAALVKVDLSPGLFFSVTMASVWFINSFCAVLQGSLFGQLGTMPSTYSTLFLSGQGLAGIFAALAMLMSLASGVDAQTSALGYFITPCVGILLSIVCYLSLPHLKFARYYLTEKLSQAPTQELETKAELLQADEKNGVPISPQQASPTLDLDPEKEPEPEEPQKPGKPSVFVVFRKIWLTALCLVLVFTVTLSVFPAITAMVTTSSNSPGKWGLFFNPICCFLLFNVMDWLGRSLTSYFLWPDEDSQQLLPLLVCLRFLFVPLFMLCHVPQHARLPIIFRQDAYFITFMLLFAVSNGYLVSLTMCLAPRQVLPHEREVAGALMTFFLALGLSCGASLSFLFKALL

Hepatocyte [4] = test: Transport through CNT3 in mouse hepatocytes by oil filtration assay in presence of sodium ions in Kreb-henseleit buffer
Hepatocyte [5] = test: Transport through CNT3 in rat hepatocytes by oil filtration assay
[6] = target: T4, Sodium/nucleoside cotransporter 1 (Rattus norvegicus) (UniProt Q62674); test: Transport through CNT1 in rat hepatocytes by oil filtration assay in presence of sodium ions in Kreb-henseleit buffer containing 100 uM NBMPR and thymidine; settings: Hepatocyte
T4 sequence (whole entry): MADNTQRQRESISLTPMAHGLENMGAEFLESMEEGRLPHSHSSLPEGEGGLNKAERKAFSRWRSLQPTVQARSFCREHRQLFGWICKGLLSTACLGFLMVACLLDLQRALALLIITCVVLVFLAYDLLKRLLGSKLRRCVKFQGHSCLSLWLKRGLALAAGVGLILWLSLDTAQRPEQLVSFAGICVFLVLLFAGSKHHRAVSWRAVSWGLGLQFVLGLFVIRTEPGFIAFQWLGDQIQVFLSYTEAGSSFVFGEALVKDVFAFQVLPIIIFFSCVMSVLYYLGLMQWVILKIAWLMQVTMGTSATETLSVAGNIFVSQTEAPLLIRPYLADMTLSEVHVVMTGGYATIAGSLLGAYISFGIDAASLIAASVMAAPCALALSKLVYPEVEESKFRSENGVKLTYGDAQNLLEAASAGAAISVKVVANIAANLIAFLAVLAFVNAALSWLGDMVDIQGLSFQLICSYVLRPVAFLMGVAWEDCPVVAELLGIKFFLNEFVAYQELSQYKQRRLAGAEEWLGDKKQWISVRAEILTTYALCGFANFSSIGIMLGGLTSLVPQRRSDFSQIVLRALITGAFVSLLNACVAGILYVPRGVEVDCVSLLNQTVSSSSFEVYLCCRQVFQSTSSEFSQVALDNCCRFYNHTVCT

[7] = target: T2, Equilibrative nucleoside transporter 1 (Rattus norvegicus); test: Transport through ENT1 in rat hepatocytes by oil filtration assay in presence of sodium ions in Kreb-henseleit buffer containing 100 uM NBMPR and 1 mM uridine; settings: Hepatocyte
[8] = target: T1, Equilibrative nucleoside transporter 2 (Rattus norvegicus); test: Transport through ENT2 in rat hepatocytes by oil filtration assay in presence of sodium ions in Kreb-henseleit buffer containing 100 uM NBMPR and 1 mM uridine; settings: Hepatocyte
Hepatocyte [9] = test: Transport through CNT3 in rat hepatocytes by oil filtration assay in presence of sodium ions in Kreb-henseleit buffer

SMILES	Activity [1]	Activity [2]	Activity [3]	Activity (Hepatocyte [4])	Activity (Hepatocyte [5])	Activity [6]	Activity [7]	Activity [8]	Activity (Hepatocyte [9])
Nc1ncnc2c1ncn2[C@@H]1O[C@H](CO)[C@@H](O)[C@H]1O	inactive	inactive	inactive	inactive	inactive	inactive	inactive	inactive	Active
NC(=O)c1ncn([C@@H]2O[C@H](CO)[C@@H](O)[C@H]2O)n1	inactive	inactive	inactive	inactive	Active	inactive	inactive	inactive	Active
